# Values joined by “and” are separate entries in the source; they are usually repeats but may differ in a detail not shown here. Equal entries are not always repeated. Where two headings read alike, the source gives them in different places.
# Experiment: Pharmacokinetic evaluation, plasma and brain concentrations
# Type: in vivo, ICR mice
# Conditions: for concentration at 0.083 h / concentration at 0.25 h / concentration at 0.5 h / concentration at 1 h / concentration at 2 h / concentration at 4 h / concentration at 6 h / concentration at 8 h: male, ICR, mouse
# From the text: Distribution of a medicament in the body is one of the important indicators to determine the dose and efficacy of the medicament. Thus, excellent candidate compounds should have good pharmacokinetic characteristics. In addition, since the compound of the present invention is intended to be used for the treatment of Alzheimer's disease, which is a disease of the central nervous system, the distribution pattern of the compound in the brain and the blood is also one of the subjects to be investigated. In this experiment, compound 50561 was administered to mice […] or by gavage, and the concentrations of the compound in blood and brain were measured at specific time points to determine the pharmacokinetic parameters.
# Forty-eight male ICR mice purchased from Shanghai Sippr-BK Lab. Animal Co. Ltd were used in this experiment. The oral group was fasted for 10-14 hours before administration, and feeding was restored 4 hours after administration. Samples were collected from the intravenous administration group 0.083 h, 0.25 h, 0.5 h, 1 h, 2 h, 4 h, 8 h, and 24 h after administration, respectively: while for the oral administration group, about 0.5 mL of blood was collected from the heart 0.25 h, 0.5 h, 1 h, 2 h, 4 h, 6 h, 8 h, and 24 h after administration, respectively. Heparin sodium was used for anticoagulation. Blood samples were collected and placed on ice, and plasma was separated by centrifugation (centrifugation conditions: 8000 rpm, 6 minutes, 4C). The collected plasma was stored at −80° C. before analysis. After collecting plasma samples, brain tissues were collected, washed with normal saline, water-absorbed by filter paper, weighed immediately, and then placed in labeled tubes (one tube for one brain tissue). The samples to be tested were temporarily placed on ice before being stored in a −80° C. refrigerator.
# The analysis methods of biological samples and the analysis of all samples were done by Medicilon Pharmaceutical Technology (Shanghai) Co., Ltd. The intraday accuracy evaluation of the quality control samples was carried out while analyzing the samples, and the accuracy of over 66.7% of the quality control samples was required to be between 80-120%.
# When calculating the pharmacokinetic parameters, the BLQ before Cmax (including “No peak”) was calculated as 0; BLQ occurring after Cmax (including “No peak”) was not involved in the calculation. WinNonlin Professional V 5.2 (Pharsight, USA) was adopted to calculate the following pharmacokinetic parameters: AUC(0-t), AUC(0-∞), T1/2, MRT(0-∞), Cmax, and Tmax. The tissue/plasma ratio was to be calculated by the following formula based on the blood concentration data at different time points: Tissue/plasma ratio (mL/g)=tissue blood concentration/plasma blood concentration.
# [1] = brain, iv, 1 mg/kg, IV 1 mg/kg, read-out: Brain tissue concentration, Mean
# [2] = brain, iv, 1 mg/kg, IV 1 mg/kg, read-out: Brain tissue concentration, individual mice
# [3] = brain, po, 10 mg/kg, PO 10 mg/kg, read-out: Brain tissue concentration, Mean
# [4] = brain, po, 10 mg/kg, PO 10 mg/kg, read-out: Brain tissue concentration, individual mice
# [5] = plasma, iv, 1 mg/kg, IV 1 mg/kg, read-out: Blood concentration, Mean
# [6] = plasma, iv, 1 mg/kg, IV 1 mg/kg, read-out: Blood concentration, individual mice
# [7] = plasma, po, 10 mg/kg, PO 10 mg/kg, read-out: Blood concentration, Mean
# [8] = plasma, po, 10 mg/kg, PO 10 mg/kg, read-out: Blood concentration, individual mice
compound,measurement,setting,value
O=C1C=C(OCc2ccc(F)cc2)[C@H](Cc2ccccc2)N1 [Compound 50561],"Brain/plasma ratio, Mean","PO 10 mg/kg, 6 hr",2.511 mL/G
same,"Blood concentration, individual mice","PO 10 mg/kg, 6 hr, 10 mg/kg",6.30 ng/mL and 8.82 ng/mL
same,"Brain tissue concentration, individual mice","PO 10 mg/kg, 6 hr, 10 mg/kg",11.72 ng/G and 17.40 ng/G and 25.83 ng/G
same,"Brain/plasma ratio, individual mice","PO 10 mg/kg, 6 hr, 10 mg/kg",1.839 mL/G and 2.764 mL/G and 2.929 mL/G
same,"Brain/plasma ratio, Mean","PO 10 mg/kg, 8 hr",2.009 mL/G
same,"Blood concentration, individual mice","PO 10 mg/kg, 8 hr, 10 mg/kg",4.77 ng/mL and 3.88 ng/mL and 1.63 ng/mL
same,"Brain tissue concentration, individual mice","PO 10 mg/kg, 8 hr, 10 mg/kg",9.49 ng/G and BLQ
same,"Brain/plasma ratio, individual mice","PO 10 mg/kg, 8 hr, 10 mg/kg",1.575 mL/G and 2.443 mL/G
same,"Blood concentration, individual mice","PO 10 mg/kg, 24 hr",BLQ
same,"Brain tissue concentration, individual mice","PO 10 mg/kg, 24 hr",BLQ
same,content in brain tissue compared with blood,after intravenous injection and oral administration,higher than that in the blood
same,concentration at 0.083 h,[1],738 ng/g
same,concentration at 0.25 h,[1],454 ng/g
same,concentration at 0.25 h,[2],462 ng/g
same,concentration at 0.5 h,[1],204 ng/g
same,concentration at 0.5 h,[2],148 ng/g
same,concentration at 1 h,[1],43.1 ng/g
same,concentration at 1 h,[2],42.6 ng/g
same,concentration at 0.25 h,[3],1220 ng/g
same,concentration at 0.25 h,[4],1470 ng/g
same,concentration at 0.5 h,[3],1600 ng/g
same,concentration at 1 h,[3],1120 ng/g
same,concentration at 1 h,[4],906 ng/g
same,concentration at 2 h,[3],335 ng/g
same,concentration at 4 h,[3],41.7 ng/g
same,concentration at 6 h,"brain, po, 10 mg/kg, PO 10 mg/kg, 6 hr, read-out: Brain tissue concentration, Mean",18.3 ng/g
same,concentration at 8 h,"brain, po, 10 mg/kg, PO 10 mg/kg, 8 hr, read-out: Brain tissue concentration, Mean",8.5 ng/g
same,concentration at 8 h,"brain, po, 10 mg/kg, PO 10 mg/kg, 8 hr, read-out: Brain tissue concentration, individual mice",7.52 ng/g
same,concentration at 0.083 h,[5],302 ng/mL
same,concentration at 0.25 h,[5],195 ng/mL
same,concentration at 0.25 h,[6],188 ng/mL
same,concentration at 0.5 h,[5],82 ng/mL
same,concentration at 0.5 h,[6],58.1 ng/mL
same,concentration at 1 h,[5],15.3 ng/mL
same,concentration at 0.25 h,[7],653 ng/mL
same,concentration at 0.25 h,[8],754 ng/mL
same,concentration at 0.5 h,[7],727 ng/mL
same,concentration at 0.5 h,[8],1020 ng/mL
same,concentration at 1 h,[7],499 ng/mL
same,concentration at 1 h,[8],365 ng/mL
same,concentration at 2 h,[7],144 ng/mL
same,concentration at 4 h,[7],18.9 ng/mL
same,concentration at 6 h,"plasma, po, 10 mg/kg, PO 10 mg/kg, 6 hr, read-out: Blood concentration, Mean",7.16 ng/mL
same,concentration at 6 h,"plasma, po, 10 mg/kg, PO 10 mg/kg, 6 hr, read-out: Blood concentration, individual mice",6.37 ng/mL
same,concentration at 8 h,"plasma, po, 10 mg/kg, PO 10 mg/kg, 8 hr, read-out: Blood concentration, Mean",3.43 ng/mL
